This note sets out measurements from US8431567B2 (Abbott GmbH & Co. KG, priority 2006, dated 2013).

The target in this assay is T1, human vasopressin V1b receptor (Homo sapiens, UniProt P47901).
T1 construct: expressed in transfected cells; host or cells: CHO-K1 (cell line hV1b_3H2_CHO), membrane preparation
T1 sequence (P47901 1-424): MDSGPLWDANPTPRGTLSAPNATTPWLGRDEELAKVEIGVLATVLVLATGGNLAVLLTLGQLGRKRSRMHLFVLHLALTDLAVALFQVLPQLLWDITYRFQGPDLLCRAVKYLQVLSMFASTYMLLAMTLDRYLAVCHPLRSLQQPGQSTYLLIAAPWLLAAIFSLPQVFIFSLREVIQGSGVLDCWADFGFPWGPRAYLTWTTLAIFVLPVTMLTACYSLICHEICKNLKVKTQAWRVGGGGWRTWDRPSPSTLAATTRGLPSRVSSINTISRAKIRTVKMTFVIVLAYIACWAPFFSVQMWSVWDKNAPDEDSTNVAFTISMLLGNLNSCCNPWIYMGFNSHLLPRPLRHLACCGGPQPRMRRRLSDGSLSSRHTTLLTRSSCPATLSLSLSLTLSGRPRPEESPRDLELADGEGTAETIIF
Description: Vasopressin V1b receptor binding test. The following applies: membranes of CHO-K1 cells, displacement of 1.5 nM 3H-AVP. As for the experimental part:
• Vasopressin V1b Receptor Binding Test: • Substances:
The test substances were dissolved at a concentration of 10^−2 M in DMSO and diluted further in DMSO to 5×10^−4 M to 5×10^−9 M. These DMSO solutions were diluted 1:10 with test buffer. The concentration of substance was again diluted 1:5 in the test preparation.
The membrane pellet was homogenized and centrifuged again as described, and then taken up in 50 mM Tris-HCl, pH 7.4, homogenized and, frozen in aliquots, stored at −190° C. in liquid nitrogen.
The incubation buffer was: 50 mM Tris, 10 mM MgCl2, 0.1% BSA, pH 7.4. […] The nonspecific binding was determined with 1 μM AVP (Bachem #H1780). All determinations were performed in triplicate. After incubation (60 minutes at room temperature), the free radioligand was filtered off by vacuum filtration (Skatron cell harvester 7000) on Whatman GF/B glass-fibre filter mats and the filters were transferred to scintillation vessels. Liquid scintillation measurement was performed in a Tricarb instrument, Model 2000 or 2200CA (Packard). Conversion of the measured cpm to dpm was performed with the aid of a standard quench series.
The binding parameters were calculated by nonlinear regression in SAS.
For the compounds according to the invention, the affinities for the human vasopressin receptor V1b were measured according to the above test and the affinity constant (Ki) was determined.

Structures can show the parent of a compound that is named as a salt.

A word on the Ki: it is a measure of affinity in units of concentration, obtained from inhibition or displacement. A low value points to higher affinity.

As for `COc1ccccc1C1(N2CCN(c3ccncc3)CC2)C(=O)N(S(=O)(=O)c2ccc(C)cc2OC)c2ccc(Cl)cc21` (stereo not shown) [Example 6, 5-Chloro-1-(2-methoxy-4-methyl-benzenesulphonyl)-3-(2-methoxyphenyl)-3-(4-pyridin-4-yl-piperazin-1-yl)-1,3-dihydro-indol-2-one], the Ki was < 50 nM. In the case of `CCOc1ccccc1C1(N2CCN(c3ccncc3)CC2)C(=O)N(S(=O)(=O)c2ccc(F)cc2F)c2ccc(C#N)cc21` (racemic) [Example 72, (±)-5-Cyano-1-(2,4-difluoro-benzenesulphonyl)-3-(2-ethoxyphenyl)-3-(4-pyridin-4-yl-piperazin-1-yl)-2,3-dihydro-1H-indol-2-one trifluoroacetate] it was 50 to 500 nM. As for `CCOc1c(OC)cccc1C1(N2CCN(c3ccnc(C(C)C)c3)CC2)C(=O)N(S(=O)(=O)c2ccc(OC)cc2OC)c2ccc(C#N)cc21` (stereo not shown) [Example 110, 5-Cyano-1-(2,4-dimethoxybenzenesulphonyl)-3-(2-ethoxy-3-methoxyphenyl)-3-[4-(2-isopropylpyridin-4-yl)-piperazin-1-yl]-2,3-dihydro-1H-indol-2-one×trifluoroacetic acid], the Ki is < 50 nM. For `CCOc1ccc(OC)cc1C1(N2CCN(c3ccnc(C)c3)CC2)C(=O)N(S(=O)(=O)c2ccc(OC)cc2OC)c2ccc(C#N)cc21` (stereo not shown) [Example 50, 5-Cyano-1-(2,4-dimethoxy-benzenesulphonyl)-3-(2-ethoxy-5-methoxyphenyl)-3-[4-(2-methyl-pyridin-4-yl)-piperazin-1-yl]-2,3-dihydro-1H-indol-2-one], the Ki is < 50 nM. `COc1ccc(S(=O)(=O)N2C(=O)C(c3ccccc3OC)(N3C[C@H]4C[C@@H]3CN4c3ccncc3)c3cc(Cl)ccc32)c(OC)c1` (stereo partly drawn) [Example 27, 5-Chloro-1-(2,4-dimethoxy-benzenesulphonyl)-3-(2-methoxyphenyl)-3-((1R,4R)-5-pyridin-4-yl-2,5-diaza-bicyclo[2.2.1]hept-2-yl)-1,3-dihydro-indol-2-one]: the Ki is 50 to 500 nM.

`CCOc1ccccc1C1(N2CCN(c3ccncc3)CC2)C(=O)N(S(=O)(=O)c2ccc([N+](=O)[O-])cc2OC)c2ccc(C#N)cc21` (racemic) [Example 91, (±)-5-Cyano-3-(2-ethoxyphenyl)-1-(2-methoxy-4-nitro-benzenesulphonyl)-3-(4-pyridin-4-yl-piperazin-1-yl)-2,3-dihydro-1H-indol-2-one]: the Ki fell in the range of 50 to 500 nM. The figure for `COc1ccc(S(=O)(=O)N2C(=O)C(c3cc(OC)ccc3OC)(N3CCN(c4ccncc4)CC3)c3cc(C#N)ccc32)c(OC)c1` (stereo not shown) [Example 59, 5-Cyano-1-(2,4-dimethoxy-benzenesulphonyl)-3-(2,5-dimethoxyphenyl)-3-(4-pyridin-4-yl-piperazin-1-yl)-2,3-dihydro-1H-indol-2-one] is < 50 nM; for `CCOc1ccccc1C1(N2CCN(c3ccncc3)CC2)C(=O)N(S(=O)(=O)c2ccc(OC)cc2OC)c2ccc(C#N)cc21` (stereo not shown) [Example 10, 5-Cyano-1-(2,4-dimethoxy-benzenesulphonyl)-3-(2-ethoxyphenyl)-3-(4-pyridin-4-yl-piperazin-1-yl)-2,3-dihydro-1H-indol-2-one] it is < 50 nM; for `COc1ccc(S(=O)(=O)N2C(=O)C(c3ccccc3OC)(N3C[C@H]4CN(c5ccncc5)C[C@H]43)c3cc(Cl)ccc32)c(OC)c1` (stereo partly drawn) [Example 21, 5-Chloro-1-(2,4-dimethoxy-benzenesulphonyl)-3-(2-methoxyphenyl)-3-((1R,5S)-3-pyridin-4-yl-3,6-diaza-bicyclo[3.2.0]hept-6-yl)-1,3-dihydro-indol-2-one] it is < 50 nM.

As for `CCOc1ccc(OC)cc1C1(N2CCCN(c3ccnc(C)c3)CC2)C(=O)N(S(=O)(=O)c2ccc(OC)cc2OC)c2ccc(C#N)cc21` (racemic) [Example 95, (±)-5-Cyano-1-(2,4-dimethoxy-benzenesulphonyl)-3-(2-ethoxy-5-methoxyphenyl)-3-[4-(2-methyl-pyridin-4-yl)-[1.4]diazepan-1-yl]-2,3-dihydro-1H-indol-2-one], the Ki is < 50 nM.

Turning to `CCOc1ccccc1C1(N2CCN(c3ccncc3)CC2)C(=O)N(S(=O)(=O)c2ccccc2)c2ccc(C#N)cc21` (stereo not shown) [Example 14, 5-Cyano-1-benzenesulphonyl-3-(2-ethoxyphenyl)-3-(4-pyridin-4-yl-piperazin-1-yl)-2,3-dihydro-1H-indol-2-one], the Ki lay within 50 to 500 nM. `COc1ccc(S(=O)(=O)N2C(=O)C(c3cc(CN(C)C)ccc3OC)(N3CCN(c4ccncc4)CC3)c3cc(Cl)ccc32)c(OC)c1` (stereo not shown) [Example 25, 5-Chloro-1-(2,4-dimethoxy-benzenesulphonyl)-3-(5-dimethylaminomethyl-2-methoxyphenyl)-3-(4-pyridin-4-yl-piperazin-1-yl)-1,3-dihydro-indol-2-one] had a Ki of 50 to 500 nM. As for `CCOc1ccccc1C1(N2CCN(c3ccncc3)CC2)C(=O)N(S(=O)(=O)c2ccccc2OC)c2ccc(C#N)cc21` (stereo not shown) [Example 8, 5-Cyano-3-(2-ethoxyphenyl)-1-(2-methoxy-benzenesulphonyl)-3-(4-pyridin-4-yl-piperazin-1-yl)-2,3-dihydro-1H-indol-2-one], the Ki is 50 to 500 nM. Molecule `CCOc1ccccc1C1(N2CCN(c3ccncc3)CC2)C(=O)N(S(=O)(=O)c2ccc(OC(F)F)cc2)c2ccc(C#N)cc21` (racemic) [Example 87, (±)-5-Cyano-1-(4-difluoromethoxy-benzenesulphonyl)-3-(2-ethoxyphenyl)-3-(4-pyridin-4-yl-piperazin-1-yl)-2,3-dihydro-1H-indol-2-one] showed a Ki of 50 to 500 nM. In the case of `CCOc1ccccc1C1(N2CCN(c3ccncc3)CC2)C(=O)N(S(=O)(=O)c2ccc(C(C)=O)cc2)c2ccc(C#N)cc21` (racemic) [Example 88, (±)-5-Cyano-1-(4-acetyl-benzenesulphonyl)-3-(2-ethoxyphenyl)-3-(4-pyridin-4-yl-piperazin-1-yl)-2,3-dihydro-1H-indol-2-one] it was 50 to 500 nM. With `COc1ccc(S(=O)(=O)N2C(=O)C(c3cc(OC)ccc3OC(C)C)(N3CCN(c4ccncc4)CC3)c3cc(C#N)ccc32)c(OC)c1` (stereo not shown) [Example 53, 5-Cyano-1-(2,4-dimethoxy-benzenesulphonyl)-3-(2-isopropoxy-5-methoxyphenyl)-3-(4-pyridin-4-yl-piperazin-1-yl)-2,3-dihydro-1H-indol-2-one], the Ki lay within 50 to 500 nM.

Consider `COc1ccc(S(=O)(=O)N2C(=O)C(c3ccccc3OC)(N3CC4CN(c5ccncc5)CC4C3)c3cc(Cl)ccc32)c(OC)c1` (stereo not shown) [Example 19, 5-Chloro-1-(2,4-dimethoxy-benzenesulphonyl)-3-(2-methoxyphenyl)-3-(5-pyridin-4-yl-hexahydro-pyrrolo[3,4-c]pyrrol-2-yl)-1,3-dihydro-indol-2-one], for which the Ki was < 50 nM. The figure for `CCOc1ccc(OC)cc1C1(N2CCN(c3ccncc3)CC2)C(=O)N(S(=O)(=O)c2ccc(C#N)cc2)c2ccc(C#N)cc21` (stereo not shown) [Example 61, 5-Cyano-1-(4-cyano-benzenesulphonyl)-3-(2-ethoxy-5-methoxyphenyl)-3-(4-pyridin-4-yl-piperazin-1-yl)-2,3-dihydro-1H-indol-2-one] is 50 to 500 nM; for `CCOc1ccc(CC)cc1C1(N2CCN(c3ccnc(C(C)C)c3)CC2)C(=O)N(S(=O)(=O)c2ccc(OC)cc2OC)c2ccc(C#N)cc21` (racemic) [Example 105, (±)-5-Cyano-1-(2,4-dimethoxy-benzenesulphonyl)-3-(2-ethoxy-5-ethyl-phenyl)-3-[4-(2-isopropyl-pyridin-4-yl)-piperazin-1-yl]-2,3-dihydro-1H-indol-2-one] it is < 50 nM; for `CCOc1ccc(OC)cc1C1(N2CC3CN(c4ccncc4)CC3C2)C(=O)N(S(=O)(=O)c2ccc(OC)cc2OC)c2ccc(C#N)cc21` (stereo not shown) [Example 58, 5-Cyano-1-(2,4-dimethoxy-benzenesulphonyl)-3-(2-ethoxy-5-methoxyphenyl)-3-(5-pyridin-4-yl-hexahydro-pyrrolo[3,4-c]pyrrol-2-yl)-2,3-dihydro-1H-indol-2-one] it is < 50 nM. In the case of `CCOc1ccc(OC)cc1C1(N2CCN(C3CCN(C)CC3)CC2)C(=O)N(S(=O)(=O)c2ccc(OC)cc2OC)c2ccc(C#N)cc21` (racemic) [Example 102, (±)-5-Cyano-1-(2,4-dimethoxy-benzenesulphonyl)-3-(2-ethoxy-5-methoxyphenyl)-3-[4-(1-methyl-piperidin-4-yl)-piperazin-1-yl]-2,3-dihydro-1H-indol-2-one] it was < 50 nM; in that of `COc1ccccc1C1(N2CCN(c3ccncc3)CC2)C(=O)N(S(=O)(=O)c2ccccc2)c2ccc(Cl)cc21` (stereo not shown) [Example 16, 1-Benzenesulphonyl-5-chloro-3-(2-methoxyphenyl)-3-(4-pyridin-4-yl-piperazin-1-yl)-1,3-dihydro-indol-2-one], 50 to 500 nM.
